In patent publication US5856175A, “Device for detecting microorganisms” (priority 1996, dated 1999):

Experiments:
[1] = tested on: Pseudomonas aeruginosa 33584; assay: Pattern of inhibition using silicone-emulsion CO2 sensors (Table 3); type: cell-based; settings: 4 h, 37° C., 5×10^7 CFU/ml
Description: (§1) Microbial identification using the described CO2 sensors can also be based on the principle of growth inhibition. This system differs from the classical biochemical identification systems, as identification is based on selective growth inhibition by inhibitory agents, such as dyes, antibiotics, and other substances. Once again, the production of CO2 is the measure of growth. The growth pattern produced in the presence of these inhibitory agents identifies the species of the test microorganism. The amount of growth is compared with a growth control well that contains no inhibitor. A profile is derived using a two-stage quadratic discriminate analysis based on the results derived from the battery of inhibitory agents.
(§2) Microtiter plates (96 flat bottom wells) containing 0.05% xylenol blue silicone-emulsion sensors were filled with 100 microliters of microbial growth medium containing no inhibitors (growth control wells) and eighteen different dyes, antibiotics, and other inhibitory substances. Final concentrations of the inhibitors were achieved after addition of 100 microliters of inoculum (final inoculum of 5×10^7 CFU/ml) of the representative microorganisms.
(§3) After inoculating the microtiter tray, it was sealed with a pressure sensitive plastic plate sealer and initial readings were taken with a reflectance reader. The plate was then placed into a 37° C. incubator. After four hours incubation, the plate was removed and final reflectance readings were taken.

Escherichia coli 33582 = assay: as above; type: cell-based; settings: 4 h, 37° C., 5×10^7 CFU/ml
Description: as §1, §2, §3

[2] = tested on: Alcaligenes odorans 33585; assay: as above; type: cell-based; settings: 4 h, 37° C., 5×10^7 CFU/ml
Description: as §1, §2, §3

Proteus mirabilis 33583 = assay: as above; type: cell-based; settings: 4 h, 37° C., 5×10^7 CFU/ml
Description: as §1, §2, §3

[3] = Table 2, cited from earlier work; for pH range: acid-base indicator

CC1(C)S[C@@H]2[C@H](NC(=O)C(C(=O)O)c3ccccc3)C(=O)N2[C@H]1C(=O)O (some centres unmarked) [Carbenicillin]
Percent growth as compared to a growth control without antibiotics ([1]; 40 mcg): 89%
Percent growth as compared to a growth control without antibiotics (Escherichia coli 33582; 40 mcg): 54%
Percent growth as compared to a growth control without antibiotics ([2]; 40 mcg): 77%
Percent growth as compared to a growth control without antibiotics (Proteus mirabilis 33583; 40 mcg): 69%

O=c1[nH]c(=O)n([C@H]2C[C@H](O)[C@@H](CO)O2)cc1F [Floxuridine]
Percent growth as compared to a growth control without antibiotics ([1]; 36 mcg): 79%
Percent growth as compared to a growth control without antibiotics (Escherichia coli 33582; 36 mcg): 55%
Percent growth as compared to a growth control without antibiotics ([2]; 36 mcg): 75%
Percent growth as compared to a growth control without antibiotics (Proteus mirabilis 33583; 36 mcg): 35%

[N-]=[N+]=[N-] [Sodium azide]
Percent growth as compared to a growth control without antibiotics ([1]; 75 mcg): 47%
Percent growth as compared to a growth control without antibiotics (Escherichia coli 33582; 75 mcg): 6%
Percent growth as compared to a growth control without antibiotics ([2]; 75 mcg): 47%
Percent growth as compared to a growth control without antibiotics (Proteus mirabilis 33583; 75 mcg): 35%

Acriflavine
Percent growth as compared to a growth control without antibiotics ([1]; 30 mcg): 84%
Percent growth as compared to a growth control without antibiotics (Escherichia coli 33582; 30 mcg): 5%
Percent growth as compared to a growth control without antibiotics ([2]; 30 mcg): 55%
Percent growth as compared to a growth control without antibiotics (Proteus mirabilis 33583; 30 mcg): 68%

CC(=O)OCC1=C(C(=O)O)N2C(=O)[C@@H](NC(=O)Cc3cccs3)[C@H]2SC1 [Cephalothin]
Percent growth as compared to a growth control without antibiotics ([1]; 13.5 mcg): 108%
Percent growth as compared to a growth control without antibiotics (Escherichia coli 33582; 13.5 mcg): 53%
Percent growth as compared to a growth control without antibiotics ([2]; 13.5 mcg): 66%
Percent growth as compared to a growth control without antibiotics (Proteus mirabilis 33583; 13.5 mcg): 26%

Azolitmin [Azolitmin (litmus)]
pH range [3]: 5.0-8.0 pH

O=S1(=O)OC(c2ccc(O)cc2)(c2ccc(O)cc2)c2ccccc21 [Phenol red]
pH range [3]: 6.8-8.4 pH

Brilliant green
Percent growth as compared to a growth control without antibiotics ([1]; 3 mcg): 101%
Percent growth as compared to a growth control without antibiotics (Escherichia coli 33582; 3 mcg): 104%
Percent growth as compared to a growth control without antibiotics ([2]; 3 mcg): 37%
Percent growth as compared to a growth control without antibiotics (Proteus mirabilis 33583; 3 mcg): 84%

CN(C)c1ccc2nc3ccc(=[N+](C)C)cc-3sc2c1 [Methylene blue]
Percent growth as compared to a growth control without antibiotics ([1]; 255 mcg): 90%
Percent growth as compared to a growth control without antibiotics (Escherichia coli 33582; 255 mcg): 20%
Percent growth as compared to a growth control without antibiotics ([2]; 255 mcg): 56%
Percent growth as compared to a growth control without antibiotics (Proteus mirabilis 33583; 255 mcg): 80%

O=S1(=O)OC(c2cc(Br)c(O)c(Br)c2)(c2cc(Br)c(O)c(Br)c2)c2c(Br)c(Br)c(Br)c(Br)c21 [Tetrabromophenol blue]
pH range [3]: 3.0-4.6 pH

Cc1cc(O)c(C(C)C)cc1C1(c2cc(C(C)C)c(O)cc2C)OC(=O)c2ccccc21 [Thymolphthalein]
pH range [3]: 9.3-10.5 pH

Cc1cc(C2(c3ccc(O)c(C)c3)OS(=O)(=O)c3ccccc32)ccc1O [Cresol red]
pH range (acid range) [3]: 0.2-1.8 pH
pH range (basic range) [3]: 7.2-8.8 pH

CO[C@@H]1[C@@H](OC(N)=O)[C@@H](O)[C@H](Oc2ccc3c(O)c(NC(=O)c4ccc(O)c(CC=C(C)C)c4)c(=O)oc3c2C)OC1(C)C [Novobiocin]
Percent growth as compared to a growth control without antibiotics ([1]; 48 mcg): 85%
Percent growth as compared to a growth control without antibiotics (Escherichia coli 33582; 48 mcg): 9%
Percent growth as compared to a growth control without antibiotics ([2]; 48 mcg): 16%
Percent growth as compared to a growth control without antibiotics (Proteus mirabilis 33583; 48 mcg): 48%

CC(=O)[O-].[Tl+] [Thallous acetate]
Percent growth as compared to a growth control without antibiotics ([1]; 150 mcg): 34%
Percent growth as compared to a growth control without antibiotics (Escherichia coli 33582; 150 mcg): 40%
Percent growth as compared to a growth control without antibiotics ([2]; 150 mcg): 47%
Percent growth as compared to a growth control without antibiotics (Proteus mirabilis 33583; 150 mcg): 68%

O=S1(=O)OC(c2ccc(O)c(Cl)c2)(c2ccc(O)c(Cl)c2)c2ccccc21 [Chlorophenol red]
pH range [3]: 4.8-6.4 pH

[O-][n+]1ccccc1SSc1cccc[n+]1[O-] [Omadine disulfide]
Percent growth as compared to a growth control without antibiotics ([1]; 5.5 mcg): 94%
Percent growth as compared to a growth control without antibiotics (Escherichia coli 33582; 5.5 mcg): 10%
Percent growth as compared to a growth control without antibiotics ([2]; 5.5 mcg): 36%
Percent growth as compared to a growth control without antibiotics (Proteus mirabilis 33583; 5.5 mcg): 71%

Cc1cc(C2(c3cc(C)c(O)c(Br)c3)OS(=O)(=O)c3ccccc32)cc(Br)c1O [Bromocresol purple]
pH range [3]: 5.2-6.8 pH

Nc1c(/N=N/c2ccc(-c3ccc(/N=N/c4cc(S(=O)(=O)O)c5ccccc5c4N)cc3)cc2)cc(S(=O)(=O)O)c2ccccc12 [Congo red]
pH range [3]: 3.0-5.0 pH

Cc1cc(O)ccc1C1(c2ccc(O)cc2C)OS(=O)(=O)c2ccccc21 [m-Cresol purple]
pH range (acid range) [3]: 1.0-2.6 pH
pH range (basic range) [3]: 7.6-9.2 pH

[Cl][Co][Cl] [Cobalt chloride]
Percent growth as compared to a growth control without antibiotics ([1]; 205 mcg): 52%
Percent growth as compared to a growth control without antibiotics (Escherichia coli 33582; 205 mcg): 27%
Percent growth as compared to a growth control without antibiotics ([2]; 205 mcg): 35%
Percent growth as compared to a growth control without antibiotics (Proteus mirabilis 33583; 205 mcg): 17%

N[C@@H]1CON=C1O [Cycloserine]
Percent growth as compared to a growth control without antibiotics ([1]; 78 mcg): 56%
Percent growth as compared to a growth control without antibiotics ([1]; 240 mcg): 66%
Percent growth as compared to a growth control without antibiotics (Escherichia coli 33582; 78 mcg): 13%
Percent growth as compared to a growth control without antibiotics (Escherichia coli 33582; 240 mcg): 8%
Percent growth as compared to a growth control without antibiotics ([2]; 78 mcg): 116%
Percent growth as compared to a growth control without antibiotics ([2]; 240 mcg): 27%
Percent growth as compared to a growth control without antibiotics (Proteus mirabilis 33583; 78 mcg): 107%
Percent growth as compared to a growth control without antibiotics (Proteus mirabilis 33583; 240 mcg): 26%

Alizarin yellow
pH range [3]: 10.1-12.0 pH

O=C1OC(c2ccc(O)cc2)(c2ccc(O)cc2)c2ccccc21 [Phenolphthalein]
pH range [3]: 8.3-10.0 pH

CN(C)c1ccc(C(=C2C=CC(=[N+](C)C)C=C2)c2ccccc2)cc1 [Malachite green]
Percent growth as compared to a growth control without antibiotics ([1]; 3 mcg): 87%
Percent growth as compared to a growth control without antibiotics (Escherichia coli 33582; 3 mcg): 40%
Percent growth as compared to a growth control without antibiotics ([2]; 3 mcg): 66%
Percent growth as compared to a growth control without antibiotics (Proteus mirabilis 33583; 3 mcg): 107%

Cc1cc2nc3ccc(N(C)C)cc3nc2cc1N [Neutral red]
pH range [3]: 6.8-8.0 pH

CN(C)c1ccc(N=Nc2ccccc2)cc1 [Methyl Yellow]
pH range [3]: 2.9-4.0 pH

Cc1c(C2(c3cc(C(C)C)c(O)c(Br)c3C)OS(=O)(=O)c3ccccc32)cc(C(C)C)c(O)c1Br [Bromothymol blue]
pH range [3]: 6.0-7.6 pH

Colistin
Percent growth as compared to a growth control without antibiotics ([1]; 13 mcg): 34%
Percent growth as compared to a growth control without antibiotics (Escherichia coli 33582; 13 mcg): 3%
Percent growth as compared to a growth control without antibiotics ([2]; 13 mcg): -44%
Percent growth as compared to a growth control without antibiotics (Proteus mirabilis 33583; 13 mcg): 114%

O=S(=O)(O)c1ccc(N=Nc2ccc(Nc3ccccc3)cc2)cc1 [Tropaeolin OO]
pH range [3]: 1.3-3.0 pH

Cc1c(C2(c3cc(Br)c(O)c(Br)c3C)OS(=O)(=O)c3ccccc32)cc(Br)c(O)c1Br [Bromocresol green (blue), Bromocresol green]
pH range [3]: 3.6-5.2 pH

CN(C)c1ccc(N=Nc2ccc(S(=O)(=O)O)cc2)cc1 [Methyl orange]
pH range [3]: 3.1-4.4 pH

O=S1(=O)OC(c2cc(Br)c(O)c(Br)c2)(c2cc(Br)c(O)c(Br)c2)c2ccccc21 [Bromophenol blue]
pH range [3]: 3.0-4.6 pH

O=S(=O)(O)c1ccc(N=Nc2ccc(O)cc2O)cc1 [Tropaeolin O]
pH range [3]: 11.1-12.7 pH

CN(C)c1ccc(/N=N/c2ccccc2C(=O)O)cc1 [Methyl red]
pH range [3]: 4.2-6.3 pH

O=C(O)c1cc(Br)cc(Br)c1O [Dibromosalicyclic acid]
Percent growth as compared to a growth control without antibiotics ([1]; 750 mcg): 88%
Percent growth as compared to a growth control without antibiotics (Escherichia coli 33582; 750 mcg): 83%
Percent growth as compared to a growth control without antibiotics ([2]; 750 mcg): 25%
Percent growth as compared to a growth control without antibiotics (Proteus mirabilis 33583; 750 mcg): 38%

Cc1cc(O)c(C(C)C)cc1C1(c2cc(C(C)C)c(O)cc2C)OS(=O)(=O)c2ccccc21 [Thymol blue]
pH range (acid range) [3]: 1.2-2.8 pH
pH range (basic range) [3]: 8.0-9.6 pH

CCCCCCCCCCCCN [Dodecylamine]
Percent growth as compared to a growth control without antibiotics ([1]; 18.75 mcg): 118%
Percent growth as compared to a growth control without antibiotics (Escherichia coli 33582; 18.75 mcg): 99%
Percent growth as compared to a growth control without antibiotics ([2]; 18.75 mcg): 106%
Percent growth as compared to a growth control without antibiotics (Proteus mirabilis 33583; 18.75 mcg): 108%
